Measurements: patent publication US12077503B2, “Substituted cyclic amides and their use as herbicides” (FMC CORPORATION, priority 2015, dated 2024)

What was measured:
Assay type in all cases: in vivo
[1] = system: giant foxtail (Setaria faberii); test: Test A preemergence; conditions: Setaria faberi, pre-emergence, 240 h, 0 to 100 scale where 0 is no effect and 100 is complete control, read-out: Foxtail, Giant plant response rating
Outline: (§1)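 Visual injury scores from 0, no effect, to 100, complete control, were assigned versus untreated controls roughly 10 d after treatment in the greenhouse. Test chemicals, formulated with surfactant in a non-phytotoxic solvent, were applied to planted seeds as a preemergence soil spray or postemergence to one- to two-leaf plants 2 to 10 cm tall, in loam–sand soil.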

[2] = system: pigweed (Amaranthus retroflexus); test: Test A preemergence; conditions: Amaranthus retroflexus, pre-emergence, 240 h, 0 to 100 scale where 0 is no effect and 100 is complete control, read-out: Pigweed plant response rating
[3] = system: ryegrass, Italian (Italian ryegrass, Lolium multiflorum); test: Test A preemergence; conditions: Lolium multiflorum, pre-emergence, 240 h, 0 to 100 scale where 0 is no effect and 100 is complete control, read-out: Ryegrass, Italian plant response rating
Outline: as §1

Kochia (Kochia scoparia) [4] = test: Test A preemergence; conditions: Bassia scoparia, pre-emergence, 240 h, 0 to 100 scale where 0 is no effect and 100 is complete control, read-out: Kochia plant response rating
Outline: as §1

[5] = system: ragweed (common ragweed, Ambrosia elatior); test: Test A preemergence; conditions: Ambrosia artemisiifolia, pre-emergence, 240 h, 0 to 100 scale where 0 is no effect and 100 is complete control, read-out: Ragweed plant response rating
Outline: as §1

[6] = system: barnyardgrass (Echinochloa crus-galli); test: Test A preemergence; conditions: Echinochloa crus-galli, pre-emergence, 240 h, 0 to 100 scale where 0 is no effect and 100 is complete control, read-out: Barnyardgrass plant response rating
Outline: as §1

[7] = system: blackgrass (Alopecurus myosuroides); test: Test A postemergence; conditions: Alopecurus myosuroides, post-emergence, 240 h
Outline: as §1

[8] = system: giant foxtail (Setaria faberii); test: Test A postemergence; conditions: Setaria faberi, post-emergence, 240 h
Outline: as §1

[9] = system: pigweed (Amaranthus retroflexus); test: Test A postemergence; conditions: Amaranthus retroflexus, post-emergence, 240 h
Outline: as §1

[10] = system: ryegrass, Italian (Italian ryegrass, Lolium multiflorum); test: Test A postemergence; conditions: Lolium multiflorum, post-emergence, 240 h
Outline: as §1

[11] = system: wheat (Triticum aestivum); test: Test A postemergence; conditions: Triticum aestivum, post-emergence, 240 h
Outline: as §1

Kochia (Kochia scoparia) [12] = test: Test A postemergence; conditions: Bassia scoparia, post-emergence, 240 h
Outline: as §1

[13] = system: Galium (catchweed bedstraw, Galium aparine); test: Test A postemergence; conditions: Galium, post-emergence, 240 h
Outline: as §1

[14] = system: ragweed (common ragweed, Ambrosia elatior); test: Test A postemergence; conditions: Ambrosia artemisiifolia, post-emergence, 240 h
Outline: as §1

[15] = system: barnyardgrass (Echinochloa crus-galli); test: Test A postemergence; conditions: Echinochloa crus-galli, post-emergence, 240 h
Outline: as §1

corn (Zea mays) = test: Test A postemergence; conditions: Zea mays, post-emergence, 240 h
Outline: as §1

rice (Oryra sativa) = test: Test B flooded paddy test; conditions: Oryza sativa, 250 g ai/ha, Flood; 0 to 100 scale where 0 is no effect and 100 is complete control; read-out: Rice plant response rating
Outline: (§2)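 Response scored visually against untreated controls, 0 = no effect and 100 = complete control, 13–15 d after treatment in the greenhouse. Compounds added to paddy water held 3 cm above soil surface. Treatment given at 2-leaf stage.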

[16] = system: ducksalad (Heteranthera limosa); test: Test B flooded paddy test; conditions: Heteranthera limosa, 250 g ai/ha, Flood; 0 to 100 scale where 0 is no effect and 100 is complete control; read-out: Ducksalad plant response rating
Outline: as §2

[17] = system: barnyardgrass (Echinochloa crus-galli); test: Test B flooded paddy test; conditions: Echinochloa crus-galli, 250 g ai/ha, Flood; 0 to 100 scale where 0 is no effect and 100 is complete control; read-out: Barnyardgrass plant response rating
Outline: as §2

[18] = system: sedge, umbrella (small-flower umbrella sedge, Cyperus difformis); test: Test B flooded paddy test; conditions: Cyperus difformis, 250 g ai/ha, Flood; 0 to 100 scale where 0 is no effect and 100 is complete control; read-out: Sedge, Umbrella plant response rating
Outline: as §2

[19] = 125 g ai/ha, preemergence, approx. 10 d

## CN1C[C@H](c2csc3c2CCCC3)[C@@H](C(=O)Nc2ccccc2S(C)(=O)=O)C1=O [Compound 1080]
[1]; 31 g ai/ha, Preemergence
  pest or weed control at 31 g/ha: 0%
[1]; [19]
  pest or weed control at 125 g/ha: 0%
[2]; 31 g ai/ha, Preemergence
  pest or weed control at 31 g/ha: 0%
[2]; [19]
  pest or weed control at 125 g/ha: 0%
[3]; 31 g ai/ha, Preemergence
  pest or weed control at 31 g/ha: 0%
[3]; [19]
  pest or weed control at 125 g/ha: 0%
Kochia (Kochia scoparia) [4]; 31 g ai/ha, Preemergence
  pest or weed control at 31 g/ha: 0%
Kochia (Kochia scoparia) [4]; [19]
  pest or weed control at 125 g/ha: 10%
[5]; 31 g ai/ha, Preemergence
  pest or weed control at 31 g/ha: 0%
[5]; [19]
  pest or weed control at 125 g/ha: 0%
[6]; 31 g ai/ha, Preemergence
  pest or weed control at 31 g/ha: 0%
[6]; [19]
  pest or weed control at 125 g/ha: 0%
[7]; 125 g ai/ha, postemergence, visual injury on 0 to 100 scale (0 no effect, 100 complete control), approx. 10 d, read-out: Blackgrass plant response rating
  pest or weed control at 125 g/ha: 0%
[7]; Postemergence, 31 g ai/ha, visual injury after approx. 10 d, 0 to 100 scale, 0 no effect, 100 complete control, read-out: Plant response rating, Blackgrass
  pest or weed control at 31 g/ha: 0%
[8]; 125 g ai/ha, postemergence, visual injury on 0 to 100 scale (0 no effect, 100 complete control), approx. 10 d, read-out: Foxtail, Giant plant response rating
  pest or weed control at 125 g/ha: 0%
[8]; Postemergence, 31 g ai/ha, visual injury after approx. 10 d, 0 to 100 scale, 0 no effect, 100 complete control, read-out: Plant response rating, Foxtail, Giant
  pest or weed control at 31 g/ha: 0%
[9]; 125 g ai/ha, postemergence, visual injury on 0 to 100 scale (0 no effect, 100 complete control), approx. 10 d, read-out: Pigweed plant response rating
  pest or weed control at 125 g/ha: 0%
[9]; Postemergence, 31 g ai/ha, visual injury after approx. 10 d, 0 to 100 scale, 0 no effect, 100 complete control, read-out: Plant response rating, Pigweed
  pest or weed control at 31 g/ha: 0%
[10]; 125 g ai/ha, postemergence, visual injury on 0 to 100 scale (0 no effect, 100 complete control), approx. 10 d, read-out: Ryegrass, Italian plant response rating
  pest or weed control at 125 g/ha: 0%
[10]; Postemergence, 31 g ai/ha, visual injury after approx. 10 d, 0 to 100 scale, 0 no effect, 100 complete control, read-out: Plant response rating, Ryegrass, Italian
  pest or weed control at 31 g/ha: 0%
[11]; 125 g ai/ha, postemergence, visual injury on 0 to 100 scale (0 no effect, 100 complete control), approx. 10 d, read-out: Wheat plant response rating
  plant injury at 125 g/ha: 0%
[11]; Postemergence, 31 g ai/ha, visual injury after approx. 10 d, 0 to 100 scale, 0 no effect, 100 complete control, read-out: Plant response rating, Wheat
  plant injury at 31 g/ha: 0%
Kochia (Kochia scoparia) [12]; 125 g ai/ha, postemergence, visual injury on 0 to 100 scale (0 no effect, 100 complete control), approx. 10 d, read-out: Kochia plant response rating
  pest or weed control at 125 g/ha: 0%
Kochia (Kochia scoparia) [12]; Postemergence, 31 g ai/ha, visual injury after approx. 10 d, 0 to 100 scale, 0 no effect, 100 complete control, read-out: Plant response rating, Kochia
  pest or weed control at 31 g/ha: 0%
[13]; 125 g ai/ha, postemergence, visual injury on 0 to 100 scale (0 no effect, 100 complete control), approx. 10 d, read-out: Galium plant response rating
  pest or weed control at 125 g/ha: 0%
[13]; Postemergence, 31 g ai/ha, visual injury after approx. 10 d, 0 to 100 scale, 0 no effect, 100 complete control, read-out: Plant response rating, Galium
  pest or weed control at 31 g/ha: 0%
[14]; 125 g ai/ha, postemergence, visual injury on 0 to 100 scale (0 no effect, 100 complete control), approx. 10 d, read-out: Ragweed plant response rating
  pest or weed control at 125 g/ha: 0%
[14]; Postemergence, 31 g ai/ha, visual injury after approx. 10 d, 0 to 100 scale, 0 no effect, 100 complete control, read-out: Plant response rating, Ragweed
  pest or weed control at 31 g/ha: 0%
[15]; 125 g ai/ha, postemergence, visual injury on 0 to 100 scale (0 no effect, 100 complete control), approx. 10 d, read-out: Barnyardgrass plant response rating
  pest or weed control at 125 g/ha: 50%
[15]; Postemergence, 31 g ai/ha, visual injury after approx. 10 d, 0 to 100 scale, 0 no effect, 100 complete control, read-out: Plant response rating, Barnyardgrass
  pest or weed control at 31 g/ha: 0%
Corn (Zea mays); 125 g ai/ha, postemergence, visual injury on 0 to 100 scale (0 no effect, 100 complete control), approx. 10 d, read-out: Corn plant response rating
  plant injury at 125 g/ha: 0%
Corn (Zea mays); Postemergence, 31 g ai/ha, visual injury after approx. 10 d, 0 to 100 scale, 0 no effect, 100 complete control
  Corn plant response rating (crop injury, 0 = no effect, 100 = complete kill) at 31 g/ha: 0%
Rice (Oryra sativa)
  pest or weed control at 250 g/ha: 15%
[16]
  pest or weed control at 250 g/ha: 40%
[17]
  pest or weed control at 250 g/ha: 50%
[18]
  pest or weed control at 250 g/ha: 0%
